The compounds below were run on MM.1S cells (assay: Inhibitory effect on the proliferation of MM.1S, MTS cell viability test). Conditions: Homo sapiens, MM1.S, 168 h, multiple myeloma MM.1S cells, 7 days incubation, read-out: Tumor cell inhibitory activity.
Format: cell-based
Procedure: Method of tumor cell proliferation inhibition test: the inventors tested all the example compounds on hematologic tumor cells, multiple myeloma MMTs cell line and acute leukemia cell MV-4-11 cell line of some examples. The activity test method and results are as follows.
1. The Compound's Inhibitory Effect on the Proliferation of MM.1S, MTS Cell Viability Test:
MM.1S cells were cultured and collected with 1640 plus 10% fetal bovine serum. The cell concentration was diluted according to 7 days, and 180 ul cell suspension was added to each well of the 96-well cell plate to 20,000 cells. 20 ul of DMSO with a final concentration of 0.2% was added to the control wells. The compound was 5-fold diluted—from the 10 mM stock solution, and 20 ul was also added to each compound cell well (the final concentration of DMSO was 0.2%). The cells were placed in a 37° C., 5% CO2 incubator to incubate for 7 days. After the reaction solution was prepared according to the MTS kit (Promega, G5430), 20 μL was added to each well and incubated in a 37° C., 5% CO2 incubator for 3-4 h. Absorbance value at 490 nm was read with a microtiter plate, and 690 nm absorbance value was used as the background value. OD490-OD690 was used as the final initial data. The formula for calculating the inhibition rate of the compound is: inhibition rate=(ODDMSO-ODcompound)/(ODDMSO-Oblank)×100%. The compound's proliferation inhibition IC50 was fitted by Graph Pad Prism 5.0. The experiment was repeated three times, and the average and standard deviation was calculated according to the three parallel experiments.
Cell viability test results: **** represents cell viability IC50>20 μM, […] represents cell viability 1 μM<IC50<20 μM, ** represents cell viability 100 nM<IC50<1 μM, * represents cell viability IC50<100 nM.

| SMILES | IC50 |
| --- | --- |
| O=C1CCC(N2Cc3c(CCCCCOc4ccnc5ccccc45)cccc3C2=O)C(=O)N1 (centres unmarked) [Example 1, 3-(1-oxo-4-(5-(quinoline-4-oxy)pentyl)isoindoline-2-)piperidine-2,6-dione] | < 100 nM |
| O=C1CCC(N2Cc3c(CCCOc4ccnc5ccccc45)cccc3C2=O)C(=O)N1 (centres unmarked) [Example 2, 3-(1-oxo-4-(3-(quinoline-4-oxy)propyl)isoindoline-2-)piperidine-2,6-dione] | 100 to 1000 nM |
| O=C1CCC(N2Cc3c(CCCCCCOc4ccnc5ccccc45)cccc3C2=O)C(=O)N1 (centres unmarked) [Example 3, 3-(1-oxo-4-(6-(quinoline-4-oxy)hexyl)isoindoline-2-)piperidine-2,6-dione] | < 100 nM |
| O=C1CCC(N2Cc3c(OCCCOc4ccnc5ccccc45)cccc3C2=O)C(=O)N1 (centres unmarked) [Example 4, 3-(1-oxo-4-(3-(quinoline-4-oxy)propoxy)isoindoline-2-)piperidine-2,6-dione] | 1000 to 20000 nM |
| O=C1CCC(N2Cc3c(CCCCCOc4cccc5cnccc45)cccc3C2=O)C(=O)N1 (centres unmarked) [Example 5] | 100 to 1000 nM |
| O=C1CCC(N2Cc3c(OCCCCOc4ccnc5ccccc45)cccc3C2=O)C(=O)N1 (centres unmarked) [Example 6, 3-(1-oxo-4-(4-(quinoline-4-oxy)butoxy)isoindoline-2-)piperidine-2,6-dione] | < 100 nM |
| Cc1ccc2nc(C(F)(F)F)cc(OCCCCCc3cccc4c3CN(C3CCC(=O)NC3=O)C4=O)c2c1 (centres unmarked) [Example 7, 3-(4-(5-((6-methyl-2-(trifluoromethyl)quinoline-4-)oxy)pentyl)-1-oxoisoindoline-2-)piperidine-2,6-dione] | 100 to 1000 nM |
| O=C1CCC(N2Cc3c(OCCCCOc4cc(C5CC5)nc5ccccc45)cccc3C2=O)C(=O)N1 (centres unmarked) [Example 8, 3-(4-(4-((2-cyclopropylquinoline-4-)oxy)butoxy)-1-oxoisoindoline-2-)piperidine-2,6-dione] | < 100 nM |
| O=C1CCC(N2Cc3c(CCCCCOc4ccnc5ccsc45)cccc3C2=O)C(=O)N1 (centres unmarked) [Example 9, 3-(1-oxo-4-(5-(thieno[3,2-b]pyridine-7-oxy)pentyl)isoindoline-2-)piperidine-2,6-dione] | < 100 nM |
| CCc1cc(OCCCCOc2cccc3c2CN(C2CCC(=O)NC2=O)C3=O)c2ccccc2n1 (centres unmarked) [Example 10, 3-(4-(4-((2-ethylquinoline-4-)oxy)butoxy)-1-oxoisoindoline-2-)piperidine-2,6-dione] | < 100 nM |
| O=C1CCC(N2Cc3c(CCCCCOc4cnc5ccccc5c4)cccc3C2=O)C(=O)N1 (centres unmarked) [Example 11, 3-(1-oxo-4-(5-(quinoline-3-oxy)pentyl)isoindoline-2-)piperidine-2,6-dione] | < 100 nM |
| O=C1CCC(N2Cc3c(OCCCCCOc4ccnc5ccccc45)cccc3C2=O)C(=O)N1 (centres unmarked) [Example 12, 3-(1-oxo-4-((5-(quinoline-4-oxy)pentyl)oxy)isoindoline-2-)piperidine-2,6-dione] | 100 to 1000 nM |
| O=C1CCC(N2Cc3c(CCCCCOc4cc(C(F)(F)F)nc5ccccc45)cccc3C2=O)C(=O)N1 (centres unmarked) [Example 13, 3-(1-oxo-4-(5-((2-(trifluoromethyl)quinoline-4-)oxy)pentyl)isoindoline-2-)piperidine-2,6-ditone] | < 100 nM |
| O=C1CCC(N2Cc3c(OCCCCCCOc4ccnc5ccccc45)cccc3C2=O)C(=O)N1 (centres unmarked) [Example 14, 3-(1-oxo-4-((6-(quinoline-4-oxy)hexyl)oxy)isoindoline-2-)piperidine-2,6-dione] | < 100 nM |
| O=C1CCC(N2Cc3c(CCCCOc4ccnc5ccccc45)cccc3C2=O)C(=O)N1 (centres unmarked) [Example 15, 3-(1-oxo-4-(4-(quinoline-4-oxy)butyl)isoindoline-2-)piperidine-2,6-dione] | < 100 nM |
| O=C1CCC(N2Cc3c(CCCCCN4CCOCC4)cccc3C2=O)C(=O)N1 (centres unmarked) [Example 16, 3-(4-(5-morpholinpentyl)-1-oxoisoindoline-2)-piperidine-2,6-dione] | 100 to 1000 nM |
| O=C1CCC(N2Cc3c(CCCCCN4CCCC4c4ccccc4)cccc3C2=O)C(=O)N1 (centres unmarked) [Example 17, 3-(1-oxo-4-(5-(2-phenylpyrroline-1-)pentyl)indoline-2-)piperidine-2,6-dione] | < 100 nM |
| O=C1CCC(N2Cc3c(CCCCCN4CCN(c5ccccc5)CC4)cccc3C2=O)C(=O)N1 (centres unmarked) [Example 18, 3-(1-oxo-4-(5-(4-phenylpiperazine-1-)pentyl)indoline-2-)piperidine-2,6-dione] | < 100 nM |
| COc1ccccc1N1CCN(CCCCCc2cccc3c2CN(C2CCC(=O)NC2=O)C3=O)CC1 (centres unmarked) [Example 19, 3-(4-(5-(4-(2-methoxyphenyl)piperazine-1-)pentyl)-1-oxoindoline-2-)piperidine-2,6-dione] | < 100 nM |
| O=C1CCC(N2Cc3c(CCCCCN4CCC(c5ccccc5)CC4)cccc3C2=O)C(=O)N1 (centres unmarked) [Example 20, 3-(1-oxo-4-(5-(4-phenylpiperidine-1-)pentyl)indoline-2-)piperidine-2,6-dione] | > 20000 nM |
| O=C1CCC(N2Cc3c(CCCCN4CCN(c5cccc(Cl)c5Cl)CC4)cccc3C2=O)C(=O)N1 (centres unmarked) [Example 21, 3-(4-(4-(4-(2,3-dichlorophenyl)piperazine-1-)butyl)-1-oxoisoindoline-2-)piperidine-2,6-dione] | < 100 nM |
| O=C1CCC(N2Cc3c(OCCCC(=O)N4CCN(c5ccccc5)CC4)cccc3C2=O)C(=O)N1 (centres unmarked) [Example 28, 3-(1-oxo-4-(4-oxo-4-(4-phenylpiperazine-1-)butoxy)isoindoline-2-)piperidine-2,6-dione] | < 100 nM |
| O=C1CCC(N2Cc3c(OCCCC(=O)N4CCN(c5cccc(Cl)c5Cl)CC4)cccc3C2=O)C(=O)N1 (centres unmarked) [Example 29, 3-(4-(4-(4-(2,3-dichlorophenyl)piperazine-1-)-4-oxobutoxy)-1-oxoisoindoline-2-)piperidine-2,6-dione] | < 100 nM |

The next lines start with the values.

| IC50 | SMILES |
| --- | --- |
| 100 to 1000 nM | N[C@@H](CCCc1cccc2c1CN(C1CCC(=O)NC1=O)C2=O)c1nc2cccc(Br)c2[nH]1 (stereo in doubt) [Example 195, 3-(4-((S)-4-amino-4-(7-bromo-1H-benzo[d]imidazole-2-)butyl)-1-oxoisoindoline-2-)piperidine-2,6-dione] |
| < 100 nM | O=C1CCC(N2Cc3c(CCCCCN4CCN(c5cccc(C(F)(F)F)c5)CC4)cccc3C2=O)C(=O)N1 (centres unmarked) [Example 23, 3-(1-oxo-4-(5-(4-(3-trifluoromethylphenyl)piperazine-1-)pentyl)isoindoline-2-)piperidine-2,6-dione] |
| < 100 nM | O=C1CCC(N2Cc3c(CCCCCN4CCN(c5ccnc6ccccc56)CC4)cccc3C2=O)C(=O)N1 (centres unmarked) [Example 24, 3-(1-oxo-4-(5-(4-(quinoline-4-)piperazine-1-)pentyl)isoindoline-2-)piperidine-2,6-dione] |
| 1000 to 20000 nM | C[C@]1(N2Cc3c(OCCCN4CCN(c5cccc(Cl)c5Cl)CC4)cccc3C2=O)CCC(=O)NC1=O [Example 25, (S)-3-(4-(3-(4-(2,3-dichlorophenyl)piperazine-1-)propoxy)-1-oxoisoindoline-2-)-3-methylpiperidine-2,6-dione] |
| < 100 nM | O=C1CCC(N2Cc3c(CCCCCN4CCN(c5cccc(Cl)c5Cl)CC4)cccc3C2=O)C(=O)N1 (centres unmarked) [Example 26, 3-(4-(5-(4-(2,3-dichlorophenyl)piperazine-1-)pentyl)-1-oxoisoindoline-2-)piperidine-2,6-dione] |
| 1000 to 20000 nM | C[C@]1(N2C(=O)c3cccc(OCCCN4CCN(c5cccc(Cl)c5Cl)CC4)c3C2=O)CCC(=O)NC1=O [Example 27, (S)-4-(3-(4-(2,3-dichlorophenyl)piperazine-1-)propoxy)-2-(3-methyl-2,6-dioxopiperidine-3-)isoindoline-1,3-dione] |
| < 100 nM | O=C1CCC(N2Cc3c(OCCCCC(=O)N4CCN(c5ccccc5)CC4)cccc3C2=O)C(=O)N1 (centres unmarked) [Example 30] |
| < 100 nM | O=C1CCC(N2Cc3c(OCCCCC(=O)N4CCN(c5cccc(Cl)c5Cl)CC4)cccc3C2=O)C(=O)N1 (centres unmarked) [Example 31, 3-(4-((5-(4-(2,3-dichlorophenyl)piperazine-1-)-5-oxopentyl)oxy)-1-oxopentyl-2-)piperidine-2,6-dione] |
| 100 to 1000 nM | O=C1CCC(N2Cc3c(OCCNC(=O)N4CCN(c5cccc(Cl)c5Cl)CC4)cccc3C2=O)C(=O)N1 (centres unmarked) [Example 32, 4-(2,3-dichlorophenyl)-N-(2-((2-(2,6-dioxopiperidine-3-)-1-oxoisoindoline-4-)oxy)ethyl)piperazine-1-carboxamide] |
| < 100 nM | O=C1CCC(N2Cc3c(OCCCCNC(=O)N4CCN(c5cccc(Cl)c5Cl)CC4)cccc3C2=O)C(=O)N1 (centres unmarked) [Example 33, 4-(2,3-dichlorophenyl)-N-(4-((2-(2,6-dioxopiperidine-3-)-1-oxoisoindoline-4-)oxy)butyl)piperazine-1-carboxamide] |
| 1000 to 20000 nM | O=C1CCC(N2Cc3c(OCCCNC(=O)N4CCN(c5cccc(Cl)c5Cl)CC4)cccc3C2=O)C(=O)N1 (centres unmarked) [Example 34] |
| < 100 nM | O=C1CCC(N2Cc3c(CCCCCCN4CCN(c5cccc(Cl)c5Cl)CC4)cccc3C2=O)C(=O)N1 (centres unmarked) [Example 35, 3-(4-(6-(4-(2,3-dichlorophenyl)piperazine-1-)hexyl)-1-oxoisoindoline-2-)piperidine-2,6-dione] |

Source: patent publication US12459921B2, “Isoindoline compound, preparation method, pharmaceutical composition and use thereof” (SHANGHAI INSTITUTE OF MATERIA MEDICA, CHINESE ACADEMY OF …, priority 2018, dated 2025)
